Measured values taken from patent publication US6335350B1, “Acetamide and substituted acetamide-containing thiourea inhibitors of herpes viruses” (American Home Products Corporation, priority 1998, dated 2002).
In brackets after ≈: the same amount, converted by molar mass.

Legend:
HSV-1 = test: HSV Antiviral (ELISA) Assay; format: cell-based, herpes simplex virus type 1; conditions: Vero cells, HSV-1; for IC50: Human alphaherpesvirus 1, Vero, read-out: IC50 Ug/ml HSV
Experimental: Vero cells (ATCC #CCL-81) are plated on 96-well tissue culture plates at 3.5×10^4 cells per 100 μl tissue culture DMEM (Dulbecco's modified Eagle media) supplemented with 2% fetal bovine serum (FBS) in each well. After overnight incubation @ 37° C. (in 5% CO2) and 30 minutes prior to infection with HSV-1 (multiplicity of infection equal to 0.006), cells are either untreated, or treated with test compound (multiple concentrations) or reference standard drug control. After approximately 24 hours post-infection incubation @ 37° C. (in 5% CO2), cells are fixed for ELISA assay. The primary antibody is murine anti-HSV glycoprotein D monoclonal primary antibody and the secondary antibody is goat anti-mouse IgG linked to β-galactosidase. Thus the extent of viral replication is determined by assessing β-galactosidase activity by quantifying the generation of the 4-methyl umbelliferone fluorescent cleavage product after addition of the methyl umbelliferyl-β-D-galactoside (Sigma #M1633) substrate on a microfluorimeter (365 nm for excitation and 450 nm for emission). Antiviral activity (IC50) of the test compound is determined by comparing the flourescence obtained in absence of compound to that obtained in the presence of compound.

VZV strain Ellen = test: VZV Antiviral (ELISA) Assay; format: cell-based, varicella-zoster virus; conditions: human foreskin fibroblast cells; for IC50 / inhibition at 10 µg/mL: Human alphaherpesvirus 3, Fibroblast; for IC50: read-out: IC50 Ug/ml VZV; for inhibition at 10 µg/mL: read-out: % inhibition 10 ug/ml VZV, 10 ug/ml
Experimental: For the generation of stock VZV to be used in the assay, VZV strain Ellen (ATCC #VR-1367) is used to infect human foreskin fibroblast (HFF) cells at low multiplicity (less than 0.1) and incubated overnight at 37° C. in 5% CO2. After the overnight incubation, the mixture of uninfected and VZV-infected HFF infected cells are then harvested and added to each well of 96-well plates (3.5×10^4 cells in 100 μl DMEM supplemented with 2% FBS) which contain test compound or the reference standard drug control (in 100 μl DMEM supplemented with 2% FBS per well). These cells are incubated for three days at 37° C. in 5% CO2, then fixed for ELISA assay. The primary antibody is murine anti-VZV glycoprotein II monoclonal antibody (Applied Biosystems, Inc. #13-145-100) and the secondary antibody is goat anti-mouse IgG linked to β-galactosidase. Thus the extent of viral replication is determined by assessing β-galactosidase activity by quantifying the generation of the 4-methyl umbelliferone fluorescent cleavage product after addition of the methyl umbelliferyl-β-D-galactoside (Sigma #M1633) substrate on a microfluorimeter (365 nm for excitation and 450 nm for emission). Antiviral activity (IC50) of the test compound is determined by comparing the flourescence obtained in absence of compound to that obtained in the presence of compound.

HCMV wild-type = test: HCMV yield assay; format: cell-based, human cytomegalovirus; conditions: human foreskin fibroblasts; for IC50: Human betaherpesvirus 5, Fibroblast, read-out: IC50 Ug/ml HCMV
Experimental: Yield assay. Monolayer cultures of human foreskin fibroblasts are infected with HCMV wild-type, typically at a multiplicity of infection equal to 0.2, in the presence of inhibitor compound (varying concentrations). At three days post-infection, total virus produced in these cultures (i.e. virus yield) is assessed by harvesting and titering the virus in 12-well plates of cultured human foreskin fibroblasts (done in the absence of inhibitor). Plaques are quantified at 2 weeks post-infection. An inhibitor of HCMV is identified by the reduction in titer of virus yield in the presence, compared to the titer in the absence of compound. In this assay, the relative anti-HCMV activity of an inhibitor is typically determined by calculating the IC50 or IC90 value, that is, the amount of compound required to reduce the virus yield by 50% or 90%, respectively. Table I describes IC50 data for compounds tested against HCMV.

Compound	IC50 (HSV-1)	IC50 (VZV strain Ellen)	inhibition at 10 µg/mL (VZV strain Ellen)	IC50 (HCMV wild-type)	IC50 Ug/ml HSV (HSV-1)	% inhibition 10 ug/ml VZV (VZV strain Ellen)	IC50 Ug/ml VZV (VZV strain Ellen)	IC50 Ug/ml HCMV (HCMV wild-type)
COCCN(C)c1ccc(NC(=S)Nc2ccc(NC(C)=O)cc2)cc1Cl [Example 317, N-[4-(3-{3-Chloro-4-[(2-methoxy-ethyl)-methyl-amino]-phenyl}-thioureido)-phenyl]-acetamide]	35 µg/mL (≈ 86 µM)	> 10 µg/mL	30%	2 µg/mL (≈ 4.91 µM)				
CC(=O)Nc1ccc(NC(=S)Nc2ccc(Oc3ccc(Cl)cc3S(=O)(=O)O)c(Cl)c2)cc1 [Example 262, 2-{4-[3-(4-Acetylamino-phenyl)-thioureido]-2-chloro-phenoxy}-5-chloro-benzenesulfonic acid]	> 50 µg/mL	> 10 µg/mL	15%	> 50 µg/mL				
CC(=O)Nc1ccc(NC(=S)Nc2ccc(C(C)O)c(Cl)c2)cc1 (stereo not drawn) [Example 862, N-(4-{3-[3-Chloro-4-(1-hydroxy-ethyl)-phenyl]-thioureido}-phenyl)-acetamide]	> 10 µg/mL	> 10 µg/mL	10%	2 µg/mL (≈ 5.5 µM)				
COc1cc(OC)c(NC(=S)Nc2cc(OC)c(NC(C)=O)cc2C)cc1Cl [Example 285, N-{4-[3-(5-Chloro-2,4-dimethoxy-phenyl)-thioureido]-2-methoxy-5-methyl-phenyl}-acetamide]	> 50 µg/mL	> 10 µg/mL	18%	> 50 µg/mL				
CCOC(=O)COc1c(Cl)cc(NC(=S)Nc2ccc(NC(C)=O)cc2)cc1Cl [Example 884, {4-[3-(4-Acetylamino-phenyl)-thioureido]-2,6-dichloro-phenoxy}-acetic acid ethyl ester]	> 50 µg/mL	> 10 µg/mL	21%	> 10 µg/mL				
COc1c(Cl)cc(NC(=S)Nc2ccc(NC(C)=O)cc2)cc1Cl [Example 109, N-{4-[3-(3,5-Dichloro-4-methoxy-phenyl)-thioureido]-phenyl}-acetamide]	> 10 µg/mL	> 10 µg/mL	27%	0.4 µg/mL (≈ 1.04 µM)				
CCN(CC)CC(=O)Nc1ccc(NC(=S)Nc2ccc(NC(C)=O)cc2)cc1Cl [Example 412, N-{4-[3-(4-Acetylamino-phenyl)-thioureido]-2-chloro-phenyl}-2-diethyl-amino-acetamide]					>10 Ug/ml	29%	>10 Ug/ml	>10 Ug/ml
N-{4-[3-(4-Acetylamino-phenyl)-thioureido]-2-chloro-phenyl}-2-dipropylamino-acetamide [Example 410]					>10 Ug/ml	26%	>10 Ug/ml	>10 Ug/ml
C=CCN(c1ccc(NC(=S)Nc2ccc(NC(C)=O)cc2)cc1Cl)C1CCCCC1 [Example 273, N-(4-{3-[4-(Allyl-cyclohexyl-amino)-3-chloro-phenyl]-thioureido}-phenyl)-cetamide]					>50 Ug/ml	46%	>10 Ug/ml	>10 Ug/ml
CC(=O)Nc1ccc(NC(=S)Nc2ccc(I)c(Cl)c2)cc1 [Example 903, N-{4-[3-(3-Chloro-4-iodo-phenyl)-thioureido]-phenyl}-acetamide]	10 µg/mL (≈ 22.4 µM)	> 10 µg/mL	26%	0.3 µg/mL (≈ 0.673 µM)				
CC(NC(=S)Nc1ccc(NC(=O)Cc2ccccc2)cc1)c1ccc(F)cc1 (stereo not drawn) [Example 751, N-(4-{3-[1-(4-Fluoro-phenyl)-ethyl]-thioureido}-phenyl)-2-phenyl-acetamide]	> 10 µg/mL			> 0.5 µg/mL				
CCC(=O)Nc1ccc(NC(=S)NC(C)c2ccc(F)cc2)cc1 (stereo not drawn) [Example 813, N-(4-{3-[1-(4-Fluoro-phenyl)-ethyl]-thioureido}-phenyl)-propionamide]		3.5 µg/mL (≈ 10.1 µM)						
N-(4-{3-[1-(4-Fluoro-phenyl)-ethyl]-thioureido}-phenyl)-acetamide [Example 744]					>10 Ug/ml			>0.5 Ug/ml
